This is an account of results in ChEMBL document CHEMBL3120114, “Synthesis and evaluation of new coumarin derivatives as potential atypical antipsychotics” (Eur J Med Chem, 2014).

For data set [1], the target named is T1, 5-hydroxytryptamine receptor 1A (Rattus norvegicus, UniProt P19327).
T1 sequence (P19327 whole entry): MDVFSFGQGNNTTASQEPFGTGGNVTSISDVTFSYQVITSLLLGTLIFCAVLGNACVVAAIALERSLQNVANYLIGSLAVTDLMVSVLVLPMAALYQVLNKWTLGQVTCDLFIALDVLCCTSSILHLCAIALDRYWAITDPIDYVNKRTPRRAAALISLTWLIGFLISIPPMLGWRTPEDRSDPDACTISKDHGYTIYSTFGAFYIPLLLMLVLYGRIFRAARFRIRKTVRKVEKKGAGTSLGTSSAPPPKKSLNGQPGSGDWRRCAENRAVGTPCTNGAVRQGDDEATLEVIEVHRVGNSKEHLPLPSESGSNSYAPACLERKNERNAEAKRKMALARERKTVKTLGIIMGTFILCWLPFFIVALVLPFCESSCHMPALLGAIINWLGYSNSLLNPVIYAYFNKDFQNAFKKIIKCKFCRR
Description: Displacement of [3H]8-OH-DPAT from 5HT1A receptor in Sprague-Dawley rat brain cortex homogenate after 30 mins by liquid scintillation counting. It is filed as tissue-based. (In general: Loss of bound radioactivity is the signal in a displacement assay; it reports binding, not function.)

The next data set addresses D(2) dopamine receptor (Rattus norvegicus, UniProt P61169). Description: Displacement of [3H]spiperone from dopamine D2 receptor in Sprague-Dawley rat striatum homogenate after 30 mins by liquid scintillation counting.
Data set [2] deals with 5-hydroxytryptamine receptor 2A (Rattus norvegicus, UniProt P14842). Briefly: Displacement of [3H]Ketanserin from 5HT2A receptor in Sprague-Dawley rat brain cortex homogenate after 30 mins by liquid scintillation counting. It is filed as tissue-based.
Sequence of 5-hydroxytryptamine receptor 2A (P14842 whole entry): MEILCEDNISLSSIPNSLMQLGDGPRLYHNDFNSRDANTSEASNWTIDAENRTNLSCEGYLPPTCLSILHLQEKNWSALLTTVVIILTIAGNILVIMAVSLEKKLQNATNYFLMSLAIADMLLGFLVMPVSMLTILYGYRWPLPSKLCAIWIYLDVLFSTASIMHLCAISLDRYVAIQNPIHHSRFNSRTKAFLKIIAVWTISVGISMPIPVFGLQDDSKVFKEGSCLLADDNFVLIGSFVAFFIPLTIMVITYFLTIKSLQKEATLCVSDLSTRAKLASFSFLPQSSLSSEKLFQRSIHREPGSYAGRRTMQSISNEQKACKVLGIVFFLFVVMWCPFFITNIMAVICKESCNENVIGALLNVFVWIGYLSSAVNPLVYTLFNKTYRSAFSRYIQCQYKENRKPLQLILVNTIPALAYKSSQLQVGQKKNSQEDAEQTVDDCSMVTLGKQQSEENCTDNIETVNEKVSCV
In data set [3] the test system is Mus musculus. Briefly: Antipsychotic activity in po dosed Kunming mouse assessed as reversal of apomorphine-induced cage climbing response compound administered 30 mins prior to apomorphine challenge measured for 30 mins post challenge. In kind it is functional.
The subject of data set [4] is Mus musculus. Briefly: Toxicity in po dosed Kunming mouse assessed as induction of catalepsy. In kind it is organism-based. The note with it: in vivo.
Data set [5] deals with Mus musculus. Description: Antipsychotic activity in po dosed Kunming mouse assessed as reduction in MK801-induced hyperactivity compound administered 30 mins prior to MK801 challenge measured for 90 mins post challenge. In kind it is functional.
For the next data set, the target named is Histamine H1 receptor (Cavia porcellus, UniProt P31389). Briefly: Displacement of [3H]mepyramine from histamine H1 receptor in guinea pig cerebellum homogenate after 60 mins by liquid scintillation counting. It is filed as tissue-based.
Sequence of Histamine H1 receptor (P31389 whole entry): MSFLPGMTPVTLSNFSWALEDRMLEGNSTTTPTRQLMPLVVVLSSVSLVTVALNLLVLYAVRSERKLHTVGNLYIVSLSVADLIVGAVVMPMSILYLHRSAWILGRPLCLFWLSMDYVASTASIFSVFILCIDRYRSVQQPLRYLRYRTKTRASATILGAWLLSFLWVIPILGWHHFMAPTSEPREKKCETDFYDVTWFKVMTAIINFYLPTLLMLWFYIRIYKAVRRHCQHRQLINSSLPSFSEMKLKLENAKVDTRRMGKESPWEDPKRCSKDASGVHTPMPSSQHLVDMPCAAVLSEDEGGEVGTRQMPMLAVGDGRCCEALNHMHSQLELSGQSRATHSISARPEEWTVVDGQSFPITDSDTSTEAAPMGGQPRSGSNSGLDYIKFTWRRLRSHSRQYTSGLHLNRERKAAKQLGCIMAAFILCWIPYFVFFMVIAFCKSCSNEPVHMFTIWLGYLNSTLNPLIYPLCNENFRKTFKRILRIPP
In the next data set the target is D(3) dopamine receptor (Rattus norvegicus, UniProt P19020). Briefly: Displacement of [3H]7-OH-DPA from dopamine D3 receptor in Sprague-Dawley rat olfactory tubercle homogenate after 60 mins by liquid scintillation counting. It is filed as tissue-based.
Sequence of D(3) dopamine receptor (P19020 whole entry): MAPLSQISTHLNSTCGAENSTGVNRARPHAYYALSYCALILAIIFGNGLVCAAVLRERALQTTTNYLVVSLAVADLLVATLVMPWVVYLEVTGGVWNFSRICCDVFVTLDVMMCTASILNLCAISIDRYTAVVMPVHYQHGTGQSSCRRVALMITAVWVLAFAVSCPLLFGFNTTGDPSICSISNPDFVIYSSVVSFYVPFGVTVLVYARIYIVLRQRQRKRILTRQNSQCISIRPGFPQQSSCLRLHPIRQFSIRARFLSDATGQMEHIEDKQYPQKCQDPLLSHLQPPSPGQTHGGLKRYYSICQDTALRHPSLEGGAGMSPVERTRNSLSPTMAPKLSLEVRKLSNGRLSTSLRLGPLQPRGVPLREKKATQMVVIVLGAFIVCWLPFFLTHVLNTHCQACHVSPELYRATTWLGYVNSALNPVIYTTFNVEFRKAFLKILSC
A short description of data set [6]: Acute toxicity in po dosed Kunming mouse assessed as survival measured after 24 hrs. In kind it is organism-based. Conditions: in vivo.
Data set [7] can be described thus: in vivo. The note with it: Kunming, mouse, po.
Description: Therapeutic index, ratio of ED50 for induction of catalepsy to ED50 for antipsychotic activity in po dosed Kunming mouse assessed as reversal of apomorphine-induced cage climbing response
Data set [8] can be described thus: in vivo. The note with it: Kunming, mouse, po. The source holds these as a separate data set.
Description: Therapeutic index, ratio of ED50 for induction of catalepsy to ED50 for antipsychotic activity in po dosed Kunming mouse assessed as reduction in MK801-induced hyperactivity

Sequence of D(2) dopamine receptor (P61169 whole entry): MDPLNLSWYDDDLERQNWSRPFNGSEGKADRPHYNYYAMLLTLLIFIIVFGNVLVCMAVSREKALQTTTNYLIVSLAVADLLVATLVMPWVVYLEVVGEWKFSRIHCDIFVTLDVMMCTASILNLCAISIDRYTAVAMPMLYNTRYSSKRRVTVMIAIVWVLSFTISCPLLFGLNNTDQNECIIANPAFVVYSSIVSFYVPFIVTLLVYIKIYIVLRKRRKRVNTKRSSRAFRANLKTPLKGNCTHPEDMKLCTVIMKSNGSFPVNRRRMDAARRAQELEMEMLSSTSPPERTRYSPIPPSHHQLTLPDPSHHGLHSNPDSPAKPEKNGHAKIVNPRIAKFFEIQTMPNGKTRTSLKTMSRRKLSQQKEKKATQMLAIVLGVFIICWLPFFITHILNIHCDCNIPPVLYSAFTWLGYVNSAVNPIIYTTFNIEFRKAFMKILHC

As to `COc1ccccc1N1CCN(CCCCOc2ccc3c4c(c(=O)oc3c2C)CCC4)CC1`, the Ki – broadly, the dissociation constant of the complex between target and ligand, obtained from inhibition or displacement – amounted to 349 nM in [1], 570 nM at D(2) dopamine receptor and 175 nM in [2].

With `O=c1oc2cc(OCCCCN3CCN(c4nsc5ccccc45)CC3)ccc2c2c1CCC2`, the Ki in data set [1] was 969 nM; in data set [2], 653 nM.

With `CN1CCN(C2=Nc3cc(Cl)ccc3Nc3ccccc32)CC1` [CLOZAPINE], the ED50 (as a rule, the dose that gives a 50% effect, or the effect in half of the subjects) with Mus musculus [3] was determined as 3.97 mg/kg; with Mus musculus [4], 46.14 mg/kg; in the data set with Mus musculus [5] it was 2.25 mg/kg.

Regarding `Cc1cccc(N2CCN(CCCCOc3ccc4c5c(c(=O)oc4c3)CCC5)CC2)c1C`, the Ki in data set [1] stood at 22.1 nM; on D(2) dopamine receptor, 1600 nM; in data set [2] it was 11.7 nM.

On to `O=c1oc2cc(OCCCCN3CCC(c4noc5cc(F)ccc45)CC3)ccc2c2ccccc12`, for which the Ki (in data set [1]; at D(2) dopamine receptor; in [2]) was > 10000 nM in each case.

For the compound `COc1ccccc1N1CCN(CCCCOc2ccc3c4c(c(=O)oc3c2)CCCC4)CC1`, the figures for the Ki (in data set [1]; on D(2) dopamine receptor; in data set [2]) were 1120 nM, 757 nM and 1030 nM, respectively.

Consider `COc1ccccc1N1CCN(CCCOc2ccc3c4c(c(=O)oc3c2)CCC4)CC1`, for which the Ki was 640 nM in data set [1], > 10000 nM on D(2) dopamine receptor and 618 nM in [2].

Take `O=c1oc2cc(OCCCCN3CCC(c4nc5ccccc5s4)CC3)ccc2c2c1CCC2`: the Ki in data set [1] was 1600 nM; at D(2) dopamine receptor, > 10000 nM; in [2] it was 1870 nM.

Regarding `O=c1oc2cc(OCCCCCN3CCC(c4noc5cc(F)ccc45)CC3)ccc2c2c1CCC2`, the Ki in [1] is 1050 nM; at D(2) dopamine receptor, 698 nM; in data set [2], 426 nM.

Take `COc1ccc(N2CCN(CCCCOc3ccc4c5c(c(=O)oc4c3)CCC5)CC2)cc1`: the Ki in data set [1] was 1240 nM; at D(2) dopamine receptor, > 10000 nM; in data set [2], > 10000 nM.

With `O=c1oc2cc(OCCCCN3CCN(c4ccccc4)CC3)ccc2c2c1CCC2`, the Ki in [1] was 56 nM; at D(2) dopamine receptor, > 10000 nM; in data set [2] it was 59.2 nM.

For `O=c1oc2cc(OCCCCN3CCC(c4noc5cc(F)ccc45)CC3)ccc2c2c1CCC2`, the Ki in [1] was 47.5 nM; at Histamine H1 receptor it was 21.3 nM; on D(2) dopamine receptor it was 24.4 nM; at D(3) dopamine receptor it was 110 nM; in data set [2], 13.1 nM.

Consider `O=c1oc2cc(OCCCCN3CCN(c4cccc(Cl)c4Cl)CC3)ccc2c2c1CCC2`, for which the Ki in data set [1] was determined as 68 nM; at D(2) dopamine receptor, 1900 nM; in [2], 79.3 nM.

As to `COc1cccc(N2CCN(CCCCOc3ccc4c5c(c(=O)oc4c3)CCC5)CC2)c1`, the Ki in data set [1] is 22.4 nM; on D(2) dopamine receptor it was 1060 nM; in data set [2], 895 nM.

Take `O=c1oc2cc(OCCCN3CCC(c4noc5cc(F)ccc45)CC3)ccc2c2c1CCC2`: the Ki in data set [1] is > 10000 nM; on D(2) dopamine receptor, > 10000 nM; in [2] it was 188 nM.

On to `O=c1oc2cc(OCCCCN3CCC(c4noc5cc(F)ccc45)CC3)ccc2c2c1CCCC2`, for which the Ki in data set [1] was > 10000 nM; at D(2) dopamine receptor, 624 nM; in data set [2], 126 nM.

For `COc1ccccc1N1CCN(CCCCOc2cc3oc(=O)c4c(c3cc2Cl)CCC4)CC1`, the Ki in data set [1] was 84.8 nM; on D(2) dopamine receptor, > 10000 nM; in [2], 36.6 nM.

For the compound `O=c1oc2cc(OCCCCN3CCN(c4cccc(C(F)(F)F)c4)CC3)ccc2c2c1CCC2`, the Ki in data set [1] is 19.3 nM; at D(2) dopamine receptor it was > 10000 nM; in data set [2], 174 nM.

Turning to `Cc1c(OCCCCN2CCC(c3noc4cc(F)ccc34)CC2)ccc2c3c(c(=O)oc12)CCC3`, the LD50 – broadly, the dose at which mortality reaches 50% – at 24 h in data set [6] is > 2000 mg/kg. Besides, the Activity entry with Mus musculus [3] and in the data set with Mus musculus [5] was “Dose-dependent effect” each time. Besides, the ED50 turned out to be 0.61 mg/kg with Mus musculus [3], 66.47 mg/kg in the data set on Mus musculus [4] and 0.31 mg/kg with Mus musculus [5]. Further, the inhibition constant (Ki) in data set [1] is 7.8 nM; on Histamine H1 receptor it was 1830 nM; at D(2) dopamine receptor, 12.7 nM; on D(3) dopamine receptor, 13.6 nM; in data set [2], 2.2 nM. The values for the selectivity ratio in “in vivo [7]” and in the data set “in vivo [8]” were 109 and 214, respectively.

Consider `COc1ccccc1N1CCN(CCCCOc2ccc3c4c(c(=O)oc3c2)CCC4)CC1`, for which the Ki turned out to be 0.2 nM in data set [1]; 699 nM at Histamine H1 receptor; 5.6 nM on D(2) dopamine receptor; 178 nM at D(3) dopamine receptor; 3.9 nM in data set [2].

With `Cc1nc2n(c(=O)c1CCN1CCC(c3noc4cc(F)ccc34)CC1)CCCC2` [RISPERIDONE], the ED50 in the data set on Mus musculus [3] amounted to 0.02 mg/kg; with Mus musculus [4] it was 0.43 mg/kg; in the data set on Mus musculus [5] it was 0.017 mg/kg.

With `O=c1oc2cc(OCCCCN3CCN(c4ccc(F)cc4)CC3)ccc2c2c1CCC2`, the Ki in [1] is 28.9 nM; on D(2) dopamine receptor, > 10000 nM; in data set [2], 16.5 nM.

Take `O=c1oc2cc(OCCCCN3CCC(c4noc5cc(F)ccc45)CC3)c(Cl)cc2c2c1CCC2`: the results for the Ki (in data set [1]; at D(2) dopamine receptor; in [2]) were 140 nM, 146 nM and 249 nM, respectively.

For `O=c1oc2cc(OCCCCN3CCN(c4ccccn4)CC3)ccc2c2c1CCC2`, the Ki is 1260 nM in data set [1], > 10000 nM at D(2) dopamine receptor and 1400 nM in [2].

With `O=c1oc2cc(OCCCN3CCC(c4noc5cc(F)ccc45)CC3)ccc2c2ccccc12`, the Ki (in data set [1]; on D(2) dopamine receptor; in data set [2]) was > 10000 nM each time.

For `COc1ccccc1N1CCN(CCCCOc2ccc3c4c(c(=O)oc3c2Cl)CCC4)CC1`, the Ki came out at 157 nM in data set [1], 159 nM at D(2) dopamine receptor and 105 nM in [2].

For the compound `O=C(CCCN1CCC(O)(c2ccc(Cl)cc2)CC1)c1ccc(F)cc1` [HALOPERIDOL], the ED50 with Mus musculus [3] came out at 0.14 mg/kg; in the data set with Mus musculus [4], 0.38 mg/kg; in the data set on Mus musculus [5], 0.16 mg/kg. The values for the selectivity ratio in the data set “in vivo [7]” and in “in vivo [8]” were 2.71 and 2.38, respectively.

As for `O=c1oc2cc(OCCCCN3CCC(c4nc5ccccc5o4)CC3)ccc2c2c1CCC2`, the Ki in data set [1] was determined as 26.8 nM; at D(2) dopamine receptor it was 1890 nM; in data set [2], 16.2 nM.

Regarding `O=c1oc2c(Cl)c(OCCCCN3CCC(c4noc5cc(F)ccc45)CC3)ccc2c2c1CCC2`, the Ki in data set [1] is 11.4 nM; on Histamine H1 receptor it was 13.6 nM; at D(2) dopamine receptor, 18.9 nM; at D(3) dopamine receptor, 13.9 nM; in data set [2], 5.3 nM.
